Activity calls are given as the source filed them. The calls are words filed in the database; no cut-off is given here.

Data set [1] concerns Quadruplex DNA. In words: Binding affinity to parallel TTRG3 G-quadruplex (unknown origin) assessed as formation of anti-parallel G-quadruplex formation in presence of 100 mM K+ by circular dichroism spectra analysis. It counts as nucleic-acid assay. For orientation: CD spectra are sensitive to the conformation of chiral molecules.
In data set [2] the test system is Quadruplex DNA. In words: Binding affinity to parallel TTRG1 G-quadruplex (unknown origin) assessed as formation of anti-parallel G-quadruplex formation in presence of 1 mM K+ by circular dichroism spectra analysis. The format is nucleic-acid assay.
The test system of data set [3] is Quadruplex DNA. Briefly: Binding affinity to TTRG3 G-quadruplex (unknown origin) assessed as hyperchromic shift by measuring increase in absorbance intensity at 1 uM by UV-Visible spectrophotometric analysis. The format is nucleic-acid assay.
The target in data set [4] is Quadruplex DNA. Briefly: Binding affinity to TTRG3 G-quadruplex (unknown origin) assessed as dissociation constant by fluorescence spectroscopy. It counts as nucleic-acid assay.
Data set [5] concerns Quadruplex DNA. Briefly: Stabilization of TTRG3 G-quadruplex (unknown origin) assessed as change in melting temperature in presence of K+ by circular dichroism analysis. It counts as nucleic-acid assay.
The test system of data set [6] is Quadruplex DNA. In words: Binding affinity to TTRG3 G-quadruplex (unknown origin) assessed as increase in fluorescence by measuring red shift at 1 uM by UV-Visible spectrophotometric analysis. It counts as nucleic-acid assay.
In data set [7] the test system is Quadruplex DNA. In words: Stabilization of parallel TTRG3 G-quadruplex (unknown origin) by CD spectra analysis. The format is nucleic-acid assay.
For data set [8], the system named is Quadruplex DNA. In words: Binding affinity to TTRG3 G-quadruplex (unknown origin) assessed as increase in fluorescence intensity at 2 uM by fluorescence titration spectra analysis. It counts as nucleic-acid assay.
In data set [9] the test system is Quadruplex DNA. Briefly: Binding affinity to parallel TTRG1 G-quadruplex (unknown origin) assessed as formation of anti-parallel G-quadruplex formation in presence of 100 mM K+ by circular dichroism spectra analysis. The format is nucleic-acid assay.
Data set [10] concerns HepG2. Briefly: Induction of apoptosis in human HepG2 cells at 20 uM incubated for 48 hrs by calcein-AM/PI staining based analysis. The format is functional, cell-based.
Data set [11] concerns HepG2. In words: Cytotoxicity against human HepG2 cells at 50 uM by CCK-8 assay relative to control. The format is toxicity, cell-based. To be noted: hepg2, 50 µM. A general note: Formazan colour is commonly taken as a measure of viable cells.
Data set [12] has as its system Quadruplex DNA. Briefly: Stabilization of TTRG3 G-quadruplex (unknown origin) assessed as melting temperature in presence of K+ by circular dichroism analysis. The format is nucleic-acid assay.
Data set [13] deals with HepG2. Briefly: Downregulation of TTR mRNA expression in human HepG2 cells by RT-PCR analysis. It counts as functional, cell-based.

Consider `CCC1=C(C)c2cc3[nH]c(cc4nc(cc5c(CC)c(C)c(cc1n2)n5C)C(C)=C4CCC(=O)O)c(CCC(=O)O)c3C`, for which the result in the data set on Quadruplex DNA [1], with Quadruplex DNA [9] and in the data set on HepG2 [10] was inactive. Also, the outcome in the data set with Quadruplex DNA [2], in the data set with Quadruplex DNA [3], in the data set on Quadruplex DNA [6], in the data set with Quadruplex DNA [7] and in the data set on Quadruplex DNA [8] was Active. Besides, at Quadruplex DNA [4], the Kd was determined as 5.3 nM. In the data set on Quadruplex DNA [5], the ΔTm worked out at 16.1 °C. The Activity with HepG2 [11] stood at 85%. For the same compound, in the data set on Quadruplex DNA [12], the Tm is 64 °C.
On to `CN1/C(=C/c2cc[n+](C)c3ccccc23)Sc2ccccc21.Cc1ccc(S(=O)(=O)[O-])cc1`, for which the outcome in the data set on Quadruplex DNA [1], with Quadruplex DNA [9] and in the data set on HepG2 [10] was inactive. Further, the outcome with Quadruplex DNA [2], in the data set on Quadruplex DNA [3], in the data set on Quadruplex DNA [6], in the data set on Quadruplex DNA [7] and with Quadruplex DNA [8] was Active. Besides, the equilibrium dissociation constant (Kd) on Quadruplex DNA [4] was determined as 167 nM. In addition, in the data set on Quadruplex DNA [5], the shift in melting temperature (ΔTm) is 5.4 °C. The compound also yielded an Activity in the data set on HepG2 [11] of 85%. In the data set on Quadruplex DNA [12], the Tm turned out to be 53.3 °C.
Regarding `C[n+]1ccc(-c2c3nc(c(-c4cc[n+](C)cc4)c4ccc([nH]4)c(-c4cc[n+](C)cc4)c4nc(c(-c5cc[n+](C)cc5)c5ccc2[nH]5)C=C4)C=C3)cc1.Cc1ccc(S(=O)(=O)[O-])cc1.Cc1ccc(S(=O)(=O)[O-])cc1.Cc1ccc(S(=O)(=O)[O-])cc1.Cc1ccc(S(=O)(=O)[O-])cc1`, the Kd at Quadruplex DNA [4] was 148 nM. In the data set on HepG2 [11], this compound yielded an Activity of 85%.
Consider `C[n+]1ccc(-c2c3nc(c(-c4cc[n+](C)cc4)c4ccc([nH]4)c(-c4cc[n+](C)cc4)c4ccc([nH]4)c(-c4cc[n+](C)cc4)c4nc2C=C4)C=C3)cc1`, for which the result in the data set on Quadruplex DNA [1], in the data set on Quadruplex DNA [8], in the data set on Quadruplex DNA [9] and in the data set with HepG2 [10] was inactive. Further, the result in the data set on Quadruplex DNA [2], in the data set with Quadruplex DNA [3], with Quadruplex DNA [6] and with Quadruplex DNA [7] was Active. Moreover, in the data set with Quadruplex DNA [5], the ΔTm is 21.5 °C. For the same compound, in the data set with HepG2 [13], the Activity entry is “Dose-Dependent Effect”. Moreover, the Tm with Quadruplex DNA [12] worked out at 69.4 °C.
`CN(C)c1ccc(Nc2c3ccc(NC(=O)CCN4CCCC4)cc3nc3cc(NC(=O)CCN4CCCC4)ccc23)cc1`: the outcome with Quadruplex DNA [1], with Quadruplex DNA [3], in the data set with Quadruplex DNA [6], in the data set on Quadruplex DNA [8], in the data set on Quadruplex DNA [9] and in the data set with HepG2 [10] was inactive. Besides, the outcome with Quadruplex DNA [2] and with Quadruplex DNA [7] was Active. Further, the ΔTm with Quadruplex DNA [5] is 6.9 °C. Further, the results for the Activity result with HepG2 [13] and in the data set on HepG2 [11] were “Dose-Dependent Effect” and 85%, respectively. The Tm in the data set with Quadruplex DNA [12] was 54.8 °C.

A word on the Kd: it is the equilibrium constant for the complex coming apart. By ΔTm is commonly meant the change in melting temperature against a reference sample.

(Values after ChEMBL document CHEMBL5584212, “Characterization of the G-quadruplexes in the transthyretin gene and its role in silencing transthyretin mRNA transcription” (Bioorg Med Chem Lett, 2024).)
